For data set [1], the system named is Botrytis cinerea. Nature of the data set: In vivo test on Botrytis cinerea (grey mould). To be noted: gherkin plants, spray, 500 ppm, grading 4/5 days after contamination. As to the method: The active ingredients tested are prepared by homogenization in a mixture of acetone/Tween/DMSO, then diluted with water to obtain the desired active material
Gherkin plants (Vert petit de Paris variety), sown on a 50/50 peat soil-pozzolana substrate in starter cups and grown at 18-20° C., are treated at the cotyledon Z11 stage by spraying with the active ingredient prepared as described above.
Plants, used as controls, are treated with an aqueous solution not containing the active material. After 24 hours, the plants are contaminated by spraying them with an aqueous suspension of cryopreserved Botrytis cinerea spores (50.000 spores per ml) on upper surface of the leaves. The spores are suspended in a nutrient solution composed of: • 10 g/L of PDB; • 50 g/L of D-fructose; • 2 g/L of NH4NO3; • 1 g/L of KH2PO4.
The contaminated cucumber plants are settled for 4/5 days in a climatic room at 17° C. (day/night) and at 80% relative humidity.
Grading is carried out 4/5 days after the contamination, in comparison with the control plants.
(§1) Under these conditions, good (at least 70%) or total protection is observed at a dose of 500 ppm with the following compounds: […]

For data set [2] the following is noted: pH 2.7.
For data set [3], the system named is Alternaria brassicae. Briefly: In vivo test on Alternaria brassicae (leaf spot of crucifers). To be noted: radish plants, spray, 500 ppm, grading 6 to 7 days after contamination. As to the method:
(§2) The active ingredients tested are prepared by homogenization in a mixture of acetone/tween/DMSO, then diluted with water to obtain the desired active material.
Radish plants (Pernot variety), sown on a 50/50 peat soil-pozzolana substrate in starter cups and grown at 18-20° C., are treated at the cotyledon stage by spraying with the active ingredient prepared as described above.
Plants, used as controls, are treated with the mixture of acetone/tween/water not containing the active material.
After 24 hours, the plants are contaminated by spraying them with an aqueous suspension of Alternaria brassicae spores (40,000 spores per cm^3). The spores are collected from a 12 to 13 days-old culture.
The contaminated radish plants are incubated for 6-7 days at about 18° C., under a humid atmosphere.
Grading is carried out 6 to 7 days after the contamination, in comparison with the control plants.
Under these conditions, good protection (at least 70%) is observed at a dose of 500 ppm with the following compounds: […]

Data set [4] has as its system Phytophthora infestans. The class given is in vivo. The conditions noted are these: tomato plants, spray, 500 ppm, grading 5 days after contamination.
Data set [5] concerns Pyrenophora teres. Briefly: In vivo test on Pyrenophora teres (barley net blotch). To be noted: barley plants, spray, 500 ppm, grading 12 days after contamination. Here is the method:
The active ingredients tested are prepared by homogenization in a mixture of acetone/Tween/DMSO, then diluted with water to obtain the desired active material concentration.
Barley plants (Plaisant variety), sown on a 50/50 peat soil-pozzolana substrate in starter cups and grown at 22° C. (12 h)/20° C. (12 h), are treated at the 1-leaf stage (10 cm tall) by spraying with the active ingredient prepared as described above.
(§3) Plants, used as controls, are treated with an aqueous solution not containing the active material.
After 24 hours, the plants are contaminated by spraying them with an aqueous suspension of Pyrenophora teres spores (12.000 spores per ml). The spores are collected from a 12-day-old culture.
The contaminated barley plants are incubated for 24 hours at about 20° C. and at 100% relative humidity, and then for 12 days at 80% relative humidity.
Grading is carried out 12 days after the contamination, in comparison with the control plants.
Under these conditions, good (at least 70%) is observed at a dose of 500 ppm with the following compounds: […]

Data set [6] relates to Puccinia recondita. Nature of the data set: In vivo test on Puccinia recondita (brown rust). To be noted: wheat plants, spray, 500 ppm, grading 10 days after contamination. Summed up:
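Wheat (Scipion) at the 1-leaf stage sprayed with compound suspension (acetone/tween/DMSO diluted in water), then inoculated 24 h later with Puccinia recondita spores at 100.000 spores per ml. Plants were held 24 h at 20 °C/100% RH, then 10 days at 20 °C/70% RH; protection graded 10 days post-inoculation versus untreated controls.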

The test system of data set [7] is Plasmopara viticola. Nature of the data set: Plasmopara test (grapevines)/preventive. The class given is in vivo. To be noted: preventive spray, 10 ppm of active ingredient, evaluated 6 days after inoculation. Summed up: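 Young grapevines sprayed preventively with compound formulated in acetone/dimethylacetamide with emulsifier, diluted in water, then inoculated with P. viticola spores after drying. Held 1 day at ~20 °C/100% RH, 4 days in greenhouse at ~21 °C/~90% RH, then misted for 1 day. Efficacy scored 6 days post-inoculation (0% = untreated control, 100% = no disease).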

The subject of data set [8] is Uromyces appendiculatus. Briefly: In vivo test on Uromyces appendiculatus (brown rust of bean). To be noted: Saxa variety plants, spray, 500 ppm, grading 10 days after contamination. Here is the method: as §2
Wheat plants (Saxa variety) sown on 50/50 peat soil-pozzolana substrate in starter cups and grown at 24° C., are treated at the 2-leaf stage (9 cm tall) by spraying with the aqueous suspension described above.
as §3
After 24 hours, the plants are contaminated by spraying the leaves with an aqueous suspension of Uromyces appendiculatus spores (150.000 spores per ml). The spores are collected from a 10-day-old contaminated […] and are suspended in water containing 2.5 ml/l of tween 80 10%. The contaminated […] are incubated for 24 hours at 20° C. and at 100% relative humidity, and then for 10 days at 20° C. and at 70% relative humidity. Grading is carried out 10 days after the contamination, in comparison with the control plants.
as §1

The subject of data set [9] is Pyricularia grisea. The class given is in vivo. The conditions noted are these: rice plants, spray, 500 ppm, grading 6 days after contamination.
Data set [10] concerns Mycosphaerella graminicola. Briefly: In vivo test on Mycosphaerella graminicola (wheat leaf spot). To be noted: wheat plants, spray, 500 ppm, grading 21 to 28 days after contamination. Summed up: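 Scipion wheat at 1-leaf stage was sprayed with compound suspension (acetone/tween/DMSO diluted in water), then inoculated 24 h later with spores (500.000/ml). Plants were held 72 h at 18° C and 100% RH, then 21 to 28 days at 90% RH. Efficacy was graded as % versus untreated controls.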

The test system of data set [11] is Phytophthora infestans. The class given is in vivo. The conditions noted are these: tomato, preventive spray, 100 ppm of active ingredient, evaluated 7 days after inoculation.
The subject of data set [12] is Pythium aphanidermatum. Briefly: Pythium test (cucumber)/seed treatment. The class given is in vivo. To be noted: 10 g/dt seed of active ingredient, emerged seedlings after 7 days. As to the method: (§4) The test is performed under greenhouse conditions.
Cucumber seeds, treated with the active compound or compound combinations, solved in N-methyl-2-pyrrolidon and diluted with water to the desired dosages, were sown in 6*6 cm pots containing 4 cm of a 1:1 mix of steamed field soil and sand.
Perlite was incubated with mycelium fragments of Pythium aphanidermatum. 5 ml of infected perlite was scattered between the treated […] seeds. Seeds were then covered by the 1:1 mix of steamed field soil and sand. Pots were incubated in the greenhouse 7 days at 24° C. and 80% relative humidity. Assessment consisted of counting of emerged seedlings. 0% means an efficacy which corresponds to that of the control, while an efficacy of 100% means that all seedlings have emerged.

Data set [13] concerns Pythium irregulare. Nature of the data set: Pythium test (corn)/seed treatment. The class given is in vivo. The conditions noted are these: 10 g/dt seed of active ingredient, emerged seedlings after 7 days at 10° C. then 14 days at 20° C. As to the method: as §4
Corn seeds, treated with the active compound or compound combinations, solved in N-methyl-2-pyrrolidon and diluted with water to the desired dosages, were sown in 6*6 cm pots containing 4 cm of a 1:1 mix of steamed field soil and sand.
Perlite was incubated with mycelium fragments of Pythium irregulare. 5 ml of infected perlite was scattered between the treated cotton seeds. Seeds were than covered by the 1:1 mix of steamed field soil and sand. Pots were incubated in the greenhouse 7 days at 10° C. and 80% relative humidity and then 14 days at 20° C. and 80% relative humidity.
Assessment consisted of counting of emerged seedlings. 0% means an efficacy which corresponds to that of the control, while an efficacy of 100% means that all seedlings have emerged.

As a reminder, the LogP is the decadic logarithm of the partition coefficient of the neutral form, usually between octanol and water. Lower therefore signals a more hydrophilic compound.

Like-named read-outs stand apart in the source and are kept apart here. Marks after values point to notes of the source that are not given here.

For `COc1cccc(C(=NOCc2cccc(N)n2)c2noc(=O)[nH]2)c1` (mixture of isomers) [Example 354], the Eff. % in [1] was determined as 71%. In addition, the LogP in [2] was 1.29 [a].
`Cn1c(/C(=N\OCc2cccc(NC(=O)CCCCl)n2)c2ccccc2)noc1=O` [Example 34]: the results for the Eff. % in [3] and in data set [4] were 100% and 99%, respectively. For the same molecule, the LogP in [2] was 3.27 [a].
`Cn1c(/C(=N\OCc2cccc(NC(=O)C3CC3)n2)c2ccccc2)noc1=O` [Example 35]: the Eff. % in [1] turned out to be 71%; in data set [5], 100%. Besides, the LogP in data set [2] is 2.92 [a].
For the molecule `CCCCCOC(=O)Nc1cccc(CO/N=C(/c2cccc(OC)c2)c2noc(=O)n2C)n1` [Example 36], the Eff. % in data set [1] was found to be 86%; in data set [6], 75%; in [4] it was 85%; in [5], 71%. The LogP in data set [2] is 4.46 [a].
Turning to `C#CCC(C)(C)OC(=O)Nc1cccc(CO/N=C(/c2ccccc2)c2noc(=O)n2C)n1` [Example 39], the Eff. % in [7] came out at 97%; in data set [3], 83%; in data set [8] it was 81%; in data set [6], 98%; in data set [4], 100%. In addition, the LogP in data set [2] is 3.94 [a].
`Cn1c(/C(=N\OCc2cccc(NC(=O)c3cccc(F)c3)n2)c2cccc(F)c2)noc1=O` [Example 42]: the Eff. % in data set [9] amounted to 71%; in data set [4] it was 92%. Further, the LogP in [2] is 3.79 [a].
`Cn1c(/C(=N\OCc2cccc(NC(=O)CCCC[n+]3ccccc3)n2)c2ccccc2)noc1=O.O=C[O-]` [Example 67]: the Eff. % stood at 80% in data set [1], 90% in data set [10], 98% in data set [6] and 89% in [4]. Further, in data set [2], the LogP is 1.67 [a].
Regarding `C=CCOC(=O)Nc1cccc(CO/N=C(/c2ccccc2)c2noc(=O)n2C)n1` [Example 109], the Eff. % in data set [9] came out at 70%; in data set [4] it was 93%. Moreover, in data set [2], the LogP was 3.42 [a].
Regarding `CCCCCC(=O)Nc1cccc(CO/N=C(/c2ccccc2)c2noc(=O)n2C)n1` [Example 111], the Eff. % stood at 100% in data set [7]; 70% in [3]; 72% in data set [8]; 100% in [10]; 100% in data set [4]; 95% in [11]. In data set [2], the lipophilicity (LogP) was 3.89 [a].
Take `Cc1ccc(C(=O)Nc2nc(CO/N=C(/c3ccccc3)c3noc(=O)n3C)cs2)cc1` [Example 180]: the values for the Eff. % in data set [7], in data set [1] and in data set [4] were 95%, 83% and 98%, respectively. Moreover, in data set [2], the LogP is 3.76 [a].
In the case of `Cn1c(/C(=N\OCc2cccc(NC(=O)C3OCCc4ccccc43)n2)c2ccccc2)noc1=O` (centres unmarked) [Example 227], the Eff. % in data set [9] is recorded as 96%; in data set [4], 100%. Moreover, the lipophilicity (LogP) in [2] is 4.1 [a].
As for `Cn1c(C(=NOCc2csc(NC(=O)c3ccc(Cl)cc3Cl)n2)c2ccccc2)noc1=O` [Example 262], the values for the Eff. % in data set [3] and in [4] were 83% and 78%, respectively. The LogP in [2] was 3.94 [a].
Turning to `CCCOC(=O)Nc1nc(CON=C(c2ccccc2)c2noc(=O)n2C)cs1` [Example 265], the Eff. % in data set [9] was 70%; in [4], 93%. Besides, in data set [2], the LogP was 3.35 [a].
`Cn1c(/C(=N\OCc2cccc(NC(=O)COCc3ccccc3)n2)c2ccccc2)noc1=O` [Example 278]: the Eff. % in data set [1] is on record as 78%; in data set [4], 100%. The lipophilicity (LogP) in data set [2] is 3.87 [a].
Take `CCCC(C)OC(=O)Nc1cccc(CO/N=C(/c2ccccc2)c2noc(=O)n2C)n1` (centres unmarked) [Example 282]: the Eff. % in data set [7] came out at 96%; in data set [4], 98%; in data set [11], 92%; in data set [12] it was 100%; in [13], 90%. Also, the LogP in data set [2] was 4.36 [a].
Turning to `Cc1ccc(/C(=N/OCc2csc(N)n2)c2noc(=O)[nH]2)cc1` [Example 308], the Eff. % is listed as 90% in [3], 100% in data set [10], 94% in data set [6] and 89% in data set [4]. In data set [2], the LogP was 1.84 [a].
Regarding `Cn1c(/C(=N\OCc2cccc(NC(=O)c3ccc(Cl)cc3Cl)n2)c2ccccc2)noc1=O` [Example 332], the Eff. % in data set [1] turned out to be 71%; in data set [4] it was 85%. Moreover, the LogP in data set [2] was 4.14 [a].
For `Cn1c(/C(=N\OCc2cccc(NC(=O)c3ccc(F)cc3)n2)c2ccccc2)noc1=O` [Example 364], the Eff. % stood at 100% in [7], 92% in data set [3] and 98% in data set [4]. In addition, in data set [2], the LogP was 3.62 [a].
With `Cn1c(/C(=N\OCc2csc(NC(=O)c3ccc(Br)cc3)n2)c2ccccc2)noc1=O` [Example 373], the Eff. % in [1] came out at 85%; in data set [4] it was 97%. Moreover, in [2], the log partition coefficient (LogP) was 4.01 [a].
